# Test results as given in the supplement of paper PMC10331698.
# ± gives the standard deviation of the averaged measurements.
# Key:
# Experiment in all cases: level (log10 ratio to DMSO vehicle control); higher = higher biomarker level / cell amount than vehicle control
# Conditions in all cases: in DMSO
# [1] = compound: FC(F)(F)C(F)(F)C(F)(F)C(F)(F)C(F)(F)C(F)(F)C(F)(F)CCI [1-Iodo-1H,1H,2H,2H-perfluorononane]
# Method: (§1)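 BioMAP Diversity Plus panel of 12 human primary cell co-culture systems (3C, 4H, LPS, SAg, BT, BF4T, BE3C, CASM3C, HDF3CGF, KF3CT, MyoF, Mphg). Compounds were added 1 h before stimulation and left for 24 h (MyoF 48 h; BT 72 h for soluble read-outs or 6 d for IgG). Biomarkers were read by ELISA, cytotoxicity by SRB, PBMC viability and proliferation by Alamar Blue. Each well value was divided by the mean of 8 DMSO control wells on the same plate and log10 transformed; duplicate blinded samples were tested at 4 concentrations.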
# [2] = compound: CNS(=O)(=O)C(F)(F)C(F)(F)C(F)(F)C(F)(F)C(F)(F)C(F)(F)C(F)(F)C(F)(F)F [N-Methylperfluorooctanesulfonamide]
# Method: as §1
# [3] = compound: NC(=O)C(F)(F)C(F)(F)C(F)(F)C(F)(F)C(F)(F)C(F)(F)C(F)(F)F [Perfluorooctanamide]
# Method: as §1
# [4] = compound: OCC(F)(F)C(F)(F)C(F)(F)F [1H,1H-Heptafluorobutanol]
# Method: as §1
# [5] = compound: C=CC(=O)OCCC(F)(F)C(F)(F)C(F)(F)C(F)(F)F [2-(Perfluorobutyl)ethyl acrylate]
# Method: as §1
# [6] = compound: O=C(O)C(F)(F)C(F)(F)C(F)(F)C(=O)O [Hexafluoroglutaric acid]
# Method: as §1
# [7] = compound: O=P(O)(O)CCC(F)(F)C(F)(F)C(F)(F)C(F)(F)C(F)(F)C(F)(F)C(F)(F)C(F)(F)F [((Perfluorooctyl)ethyl)phosphonic acid]
# Method: as §1
Test System,level (log10) ([1]; 6700 nM),level (log10) ([1]; 20000 nM),level (log10) ([2]; 6700 nM),level (log10) ([2]; 20000 nM),level (log10) ([2]; 60000 nM),level (log10) ([3]; 6700 nM),level (log10) ([3]; 20000 nM),level (log10) ([3]; 60000 nM),level (log10) ([4]; 6700 nM),level (log10) ([4]; 20000 nM),level (log10) ([4]; 60000 nM),level (log10) ([5]; 6700 nM),level (log10) ([5]; 20000 nM),level (log10) ([5]; 60000 nM),level (log10) ([6]; 6700 nM),level (log10) ([6]; 20000 nM),level (log10) ([6]; 60000 nM),level (log10) ([7]; 6700 nM),level (log10) ([7]; 20000 nM),level (log10) ([7]; 60000 nM)
BF4T:CD90,-0.0245 ± 0.021,-0.0345 ± 0.0021,-0.006 ± 0.0042,-0.005,-0.0065 ± 0.0078,-0.0065 ± 0.0021,-0.0035 ± 0.021,-0.0155 ± 0.0035,-0.0035 ± 0.012,-0.0045 ± 0.021,-0.0045 ± 0.0035,-0.017 ± 0.0028,-0.025 ± 0.0099,-0.016 ± 0.0071,0.0025 ± 0.0092,0.009 ± 0.0042,0.0175 ± 0.005,0.001 ± 0.0099,0.0035 ± 0.005,0.014 ± 0.021
BF4T:SRB,-0.001 ± 0.0042,0.001 ± 0.0042,-0.016 ± 0.0071,-0.021 ± 0.0042,-0.0115 ± 0.013,-0.005 ± 0.0042,0.008 ± 0.011,-0.006 ± 0.0042,0.004 ± 0.017,-0.0075 ± 0.0078,0.009 ± 0.017,-0.003 ± 0.0014,-0.005,-0.0085 ± 0.0021,-0.005 ± 0.0028,-0.0065 ± 0.0021,-0.0015 ± 0.0078,-0.008 ± 0.0028,-0.009 ± 0.0014,-0.0045 ± 0.0078
3C:SRB,0.0125 ± 0.015,0.0295 ± 0.03,0.0145 ± 0.022,-0.031 ± 0.0028,-0.0675 ± 0.028,0.007 ± 0.013,0.0095 ± 0.005,-0.015 ± 0.0099,-0.0095 ± 0.012,0.001 ± 0.0085,-0.001 ± 0.0071,0.0005 ± 0.021,0.0035 ± 0.0092,-0.0345 ± 0.0078,-0.004 ± 0.0014,-0.005 ± 0.014,0.0075 ± 0.028,0.01 ± 0.016,0.001 ± 0.016,-0.078 ± 0.045
BT:Secreted IgG,-0.0075 ± 0.06,0.0115 ± 0.074,0.001 ± 0.0028,-0.0745 ± 0.0092,-0.306 ± 0.21,0.0065 ± 0.0064,0.005 ± 0.023,0.0215 ± 0.025,0.0305 ± 0.0078,0.0055 ± 0.053,0.027 ± 0.023,0.025 ± 0.017,-0.053 ± 0.054,-0.359 ± 0.049,-0.026 ± 0.04,0.055 ± 0.013,0.019 ± 0.048,0.001 ± 0.02,0.0005 ± 0.0035,-0.02 ± 0.0057
SAg:CXCL8/IL-8,-0.0055 ± 0.019,0.004 ± 0.045,-0.0435 ± 0.026,-0.0395 ± 0.005,-0.0275 ± 0.0035,-0.019 ± 0.041,-0.0255 ± 0.0021,0.056,0.012 ± 0.0085,-0.0055 ± 0.0021,-0.0045 ± 0.1,-0.029 ± 0.0099,-0.103 ± 0.013,-0.31 ± 0.064,-0.011,-0.041 ± 0.042,0.0285 ± 0.077,0.022 ± 0.023,0.037 ± 0.03,0.052 ± 0.011
BF4T:uPA,-0.011 ± 0.035,-0.012 ± 0.033,0.0055 ± 0.0064,0.01 ± 0.014,0.0385 ± 0.028,-0.0175 ± 0.015,-0.004 ± 0.038,0.016 ± 0.027,-0.002 ± 0.0071,-0.019 ± 0.011,-0.009 ± 0.011,-0.008 ± 0.028,-0.009 ± 0.02,-0.022 ± 0.03,-0.009 ± 0.016,-0.0015 ± 0.015,-0.003 ± 0.0028,0.008 ± 0.0085,0.0185 ± 0.018,0.0205 ± 0.057
SAg:CXCL9/MIG,-0.009 ± 0.0071,0.006 ± 0.0057,-0.006 ± 0.017,-0.0065 ± 0.0021,-0.013 ± 0.011,-0.0075 ± 0.005,-0.0025 ± 0.012,0.009 ± 0.0057,-0.003 ± 0.031,-0.001 ± 0.018,0.018 ± 0.014,-0.007 ± 0.016,0.001 ± 0.0057,-0.004 ± 0.013,-0.0015 ± 0.00071,-0.012 ± 0.0042,-0.0005 ± 0.005,0.001 ± 0.0028,0.006 ± 0.0085,-0.0115 ± 0.023
BT:PBMC Cytotoxicity,0.0115 ± 0.0035,0.0115 ± 0.011,0.0045 ± 0.019,0.016 ± 0.0099,0.0445 ± 0.011,0.012 ± 0.024,0.0275 ± 0.025,0.0635 ± 0.0035,0.0095 ± 0.026,-0.015 ± 0.0099,0.0105 ± 0.015,-0.028 ± 0.0014,-0.073 ± 0.018,-0.251 ± 0.057,0.019 ± 0.027,-0.017 ± 0.0071,0.005 ± 0.014,0.0055 ± 0.00071,0 ± 0.0057,0.0095 ± 0.015
BE3C:CD87/uPAR,0.0115 ± 0.018,0.016 ± 0.0014,0.0125 ± 0.015,0.0575 ± 0.061,0.083 ± 0.011,-0.0475 ± 0.0035,-0.0065 ± 0.035,-0.004 ± 0.028,-0.0115 ± 0.0092,0.032 ± 0.018,0.0015 ± 0.021,0.014 ± 0.021,0.0125 ± 0.025,-0.018 ± 0.0071,-0.0045 ± 0.0092,-0.01 ± 0.014,-0.0125 ± 0.011,0.0235 ± 0.025,0.04 ± 0.035,0.079 ± 0.038
SAg:CCL2/MCP-1,-0.0145 ± 0.0078,-0.0025 ± 0.049,-0.0205 ± 0.0035,-0.003 ± 0.011,-0.004 ± 0.0085,-0.008 ± 0.021,-0.02 ± 0.018,-0.0085 ± 0.042,0.0075 ± 0.019,0.0065 ± 0.025,0.008 ± 0.05,-0.0205 ± 0.012,-0.083 ± 0.0057,-0.141 ± 0.035,-0.028 ± 0.0071,-0.0205 ± 0.0035,-0.0205 ± 0.016,0.006 ± 0.0042,0.004 ± 0.016,-0.0195 ± 0.053
BE3C:CXCL9/MIG,-0.0085 ± 0.0035,-0.0015 ± 0.0092,0.0125 ± 0.016,0.009 ± 0.018,0.021 ± 0.028,0.0075 ± 0.028,0.0025 ± 0.019,0.012 ± 0.011,-0.001,0.0025 ± 0.0035,0.007 ± 0.0028,0.0005 ± 0.005,-0.0085 ± 0.005,0.003 ± 0.0057,0.001 ± 0.0042,0.008,-0.0055 ± 0.0021,0.0165 ± 0.0064,0.011 ± 0.0057,0.013 ± 0.021
LPS:sTNF-alpha,0.0075 ± 0.0035,0.0035 ± 0.0021,0.0045 ± 0.073,-0.012 ± 0.1,0.0085 ± 0.13,-0.036 ± 0.034,-0.025 ± 0.0085,-0.028 ± 0.0071,0.005,0.0015 ± 0.019,-0.0155 ± 0.032,-0.009 ± 0.014,-0.0025 ± 0.018,-0.0165 ± 0.025,0.0045 ± 0.026,-0.0025 ± 0.022,0.0035 ± 0.0064,0.0165 ± 0.088,0.008 ± 0.1,-0.004 ± 0.18
3C:CD87/uPAR,0.0105 ± 0.019,0.0225 ± 0.016,-0.0125 ± 0.059,-0.052 ± 0.011,-0.0055 ± 0.032,0.0075 ± 0.011,0.004 ± 0.0099,0.0045 ± 0.0092,-0.011 ± 0.025,0.0085 ± 0.023,0.026 ± 0.021,0.0065 ± 0.00071,0.0145 ± 0.005,0.004 ± 0.017,-0.0075 ± 0.018,-0.0105 ± 0.028,0.0025 ± 0.013,0.0455 ± 0.043,0.071 ± 0.025,0.0885 ± 0.059
BT:sIL-6,0.009 ± 0.017,-0.0575 ± 0.042,-0.0045 ± 0.04,0.003 ± 0.0042,-0.083 ± 0.03,0.01 ± 0.023,0.0355 ± 0.03,-0.07 ± 0.025,0.006 ± 0.044,0.049 ± 0.0071,0.0385 ± 0.043,-0.063 ± 0.041,-0.153 ± 0.0028,-0.76 ± 0.15,-0.0105 ± 0.11,0.0275 ± 0.021,-0.0155 ± 0.088,0.045 ± 0.0014,0.0645 ± 0.035,-0.019 ± 0.055
